Laboratory results as given in patent US8058285B2, “Substituted pyrido [3′, 2′: 4, 5] thieno [3, 2-D] pyrimidines and pyrido [3′, 2′: 4, 5] furo [3, 2-D] pyrimidines used as inhibitors of the PDE-4 and/or the release of TNF-ALPHA” (The Medicines Company (Leipzig) GmbH, priority 2004, dated 2011).
Values belong to the molecule of their own block, whether it stands above or below them.

Columns and labels:
[1] = tested on: TNFα release; test: LPS-induced TNFα release in diluted human blood (ELISA); assay type: cell-based; settings: LPS 1 μg/ml, human blood diluted 1:5, 24 h; read-out: IC50 value in the TNFα inhibitory assay
Description: Isolated leukocytes can be stimulated for the release of cytokines in different ways. Lipopolysaccharides (LPS) are a stimulus for the investigation of the TNFα release. LPS is part of bacterial cell walls and is released when the bacteria are killed (by antibiotics or the natural immune system). LPS stimulates in particular the activity of phagocytizing leukocytes (tissue macrophages, granulocytes, monocytes) and causes the infiltration of leukocytes from the peripheral blood into the affected tissue. A cytokine of special significance for these mechanisms is TNFα which is secreted in large amounts by the affected cells. The main source are here monocytes and macrophages. TNFα initiates and prolongs the inflammatory process in cooperation with other mediators.
For the investigation of the effect on the LPS-induced TNFα release a method was used which was described by Marx, D., Tassabehji, M., Heer, S., Hüttenbrink, K.-B., and I. Szelenyi, Pulmonary Pharmacology & Therapeutics (2002) 15, 7-15. The method is briefly: Human blood was taken from various donors, rendered incoagulable by the addition of 10 mM Na citrate and diluted 1:5 with RPMI 1640 cell culture medium. The test substances were added to the blood samples at various concentrations. 15 min later, the leukocytes were stimulated by the addition of lipopolysaccharides (LPS) from Salmonella abortus equi at a final concentration of 1 μg/ml. After the incubation of the test batches at 37° C. and under 5% CO2 in a water-saturated air for 24 h, the blood was centrifuged and the TNFα concentration in the cell-free supernatant was accurately measured using a purchasable ELISA (BD Biosciences) according to the manufacturer's instructions.

[2] = tested on: murine neuroblastoma cell line N2a; test: Induction of axon growth in N2a cells; assay type: cell-based; settings: 1 μM in the test batch, after 72 h, listed as 7-(3,4-dimethoxyphenyl)-4-ethoxy-9-methyl-2-piperazin-1-yl-pyrido[3′,2′:4,5]-thi
Description: The inventors have tested some PDE4 inhibitors according to the invention for induction of axon growth with the murine neuroblastoma cell line N2a. It turned out that in particular the substances 4-ethoxy-9-ethyl-7-(3,4-methylenedioxyphenyl)-2-piperazin-1-yl-pyrido[3′,2′:4,5]thieno[3,2-d]-pyrimidine and 7-(3,4-dimethoxyphenyl)-4-ethoxy-9-methyl-2-piperazin-1-yl-pyrido[3′,2′:4,5]thieno[3,2-d]pyrimidine hydrochloride were able to induce the growth of long processes (“axons”) having a length of up to […] at concentrations of 1 μM in the test batch after 72 h (FIGS. 1a and 1b).

[3] = tested on: CLL cells; test: Cytotoxicity on CLL cells, formazan reduction assay (MTT test); settings: 1 μM, 24 h incubation of the patient's blood, primary CLL
Method: The positive control used was fludarabine which is employed for CLL as a standard chemotherapeutic agent.
The cytotoxicity of the CLL cells was determined by means of a commercially available formazan reduction assay (MTT test) after 24 h of incubation of the patient's blood with the active substances.

[4] = tested on: PDE-4; settings: cited from earlier work

IC50 [1]: < 2000 nM
Structure (SMILES): CCOc1nc(N2CCNCC2)nc2c1sc1nc(-c3ccc(OC)c(OC)c3)cc(C)c12.Cl [4-Ethoxy-7-(3,4-dimethoxy-phenyl)-9-methyl-2-(piperazin-1-yl)-pyrido[3′,2′:4,5]thieno[3,2-d]pyrimidine-hydrochloride]
length of induced long processes (axons) [2]: ≤ 300 µm

Structure (SMILES): Nc1nc(F)nc2c1ncn2[C@@H]1O[C@H](CO)[C@@H](O)[C@@H]1O [fludarabine]
cytotoxicity, share of the cells [3]: ≤ 60%

Structure (SMILES): O=C(Nc1c(Cl)cncc1Cl)c1ccc(OC(F)F)c(OCC2CC2)c1 [roflumilast]
IC50 [4]: 0.8 nM
